Laboratory results reported in BindingDB's records for patent US11241438 (Incyte Corporation, 2022).

Target: T1, Tyrosine-protein kinase receptor TYRO3 (Homo sapiens, UniProt Q06418)
T1 sequence (Q06418 whole entry): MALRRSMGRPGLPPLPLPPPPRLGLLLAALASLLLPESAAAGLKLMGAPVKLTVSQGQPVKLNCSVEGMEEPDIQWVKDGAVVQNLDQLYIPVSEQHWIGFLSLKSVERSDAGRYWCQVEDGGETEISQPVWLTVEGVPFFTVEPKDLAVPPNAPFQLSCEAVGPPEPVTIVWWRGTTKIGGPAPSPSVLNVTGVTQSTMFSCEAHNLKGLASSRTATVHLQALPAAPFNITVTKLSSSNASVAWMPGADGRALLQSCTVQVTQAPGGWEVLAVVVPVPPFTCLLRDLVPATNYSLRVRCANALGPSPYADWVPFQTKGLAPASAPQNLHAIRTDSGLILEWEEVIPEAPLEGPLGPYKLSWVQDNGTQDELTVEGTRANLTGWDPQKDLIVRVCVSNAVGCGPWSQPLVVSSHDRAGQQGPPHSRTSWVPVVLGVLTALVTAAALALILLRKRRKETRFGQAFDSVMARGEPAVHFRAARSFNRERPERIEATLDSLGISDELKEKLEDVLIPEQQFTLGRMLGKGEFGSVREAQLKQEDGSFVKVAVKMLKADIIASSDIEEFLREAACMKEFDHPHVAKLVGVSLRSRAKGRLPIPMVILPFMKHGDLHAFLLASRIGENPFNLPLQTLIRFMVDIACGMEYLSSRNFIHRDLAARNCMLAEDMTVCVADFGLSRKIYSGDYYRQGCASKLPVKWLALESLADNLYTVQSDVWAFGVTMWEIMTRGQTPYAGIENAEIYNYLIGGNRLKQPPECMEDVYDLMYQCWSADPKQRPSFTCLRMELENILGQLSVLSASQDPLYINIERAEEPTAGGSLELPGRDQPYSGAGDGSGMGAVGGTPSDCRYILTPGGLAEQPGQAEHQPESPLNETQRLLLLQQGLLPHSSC
Assay: TAM Enzymatic Assay
Protocol: The kinase assay buffer contained 50 mM HEPES, pH7.5, 10 mM MgCl2, 1 mM EGTA, 0.01% NP-40 and 2 mM DTT. 0.1 ul test compounds dissolved in DMSO were transferred from compound plates to white 384-well assay plates (Greiner […] plates). The final concentration of DMSO was 1.25%. Enzyme solutions of 5.1 nM phosphor-Axl, or 0.0625 nM c-Mer (Carna Biosciences, 08-108), or 0.366 nM Tyro3 (Life Technologies, PR7480A) were prepared in assay buffer. A 1 mM stock solution of peptide substrate Biotin-[…]-amide SEQ ID NO: 1 (Quality Controlled Biochemicals, MA) dissolved in DMSO was diluted to 1 uM in assay buffer containing 2000 uM ATP. 4 ul enzyme solution (or assay buffer for the enzyme blank) was added to the appropriate wells in each plate, and then 4 ul/well substrate solution was added to initiate the reaction. The plate was protected from light and incubated at room temperature for 60 min. […] The plate was incubated for 1 h at room temperature, and HTRF (homogenous time resolved fluorescence) signal was measured on a PHERAstar FS plate reader (BMG labtech). Percentage of inhibition was calculated for each concentration and IC50 value was generated from curve fitting with GraphPad Prism software.

## CC(C)C(=O)N1CCC(c2cc(-c3ccc(NC(=O)c4cn(C(C)C)c(=O)n(-c5ccccn5)c4=O)cc3)c3c(N)ncnn23)CC1 [US11241438, Compound I]
  IC50: 55 nM
